Experimental data as given in PubChem BioAssay AID2060336 (Molecular Pharmacology Branch, DTP, NCI, 2025).

Test system: 958767-090-R-J1-PDC spheroid growth
Assay: Anticancer human tumor 958767-090-R-J1-PDC patient-derived head and neck squamous carcinoma cell line growth inhibition [IpAb]
Settings: spheroids with HUVEC and MSC; for IC50: curve of first compound; for viability, T/C: stronger effect = lower value
In short: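 Spheroids of 60% malignant cells, 25% HUVEC and 15% MSC were exposed to targeted agents combined with ipatasertib or abemaciclib. Doses started at or near clinical Cmax (10 microM when unknown) and fell in half-log steps.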

[1] = second compound 0.01 µM, first compound 0.0316 µM
[2] = second compound 0.01 µM, first compound 0.1 µM
[3] = second compound 0.01 µM, first compound 0.316 µM
[4] = second compound 0.01 µM, first compound 1 µM
[5] = second compound 0.01 µM, first compound 3.16 µM
[6] = second compound 0.01 µM, first compound 10 µM
[7] = second compound 0.0316 µM, first compound 0.0316 µM
[8] = second compound 0.0316 µM, first compound 0.1 µM
[9] = second compound 0.0316 µM, first compound 0.316 µM
[10] = second compound 0.0316 µM, first compound 1 µM
[11] = second compound 0.0316 µM, first compound 3.16 µM
[12] = second compound 0.0316 µM, first compound 10 µM
[13] = second compound 0.1 µM, first compound 0.0316 µM
[14] = second compound 0.1 µM, first compound 0.1 µM
[15] = second compound 0.1 µM, first compound 0.316 µM
[16] = second compound 0.1 µM, first compound 1 µM
[17] = second compound 0.1 µM, first compound 3.16 µM
[18] = second compound 0.1 µM, first compound 10 µM
[19] = second compound 0.316 µM, first compound 0.0316 µM
[20] = second compound 0.316 µM, first compound 0.1 µM
[21] = second compound 0.316 µM, first compound 0.316 µM
[22] = second compound 0.316 µM, first compound 1 µM
[23] = second compound 0.316 µM, first compound 3.16 µM
[24] = second compound 0.316 µM, first compound 10 µM
[25] = second compound 1 µM, first compound 0.0316 µM
[26] = second compound 1 µM, first compound 0.1 µM
[27] = second compound 1 µM, first compound 0.316 µM
[28] = second compound 1 µM, first compound 1 µM
[29] = second compound 1 µM, first compound 3.16 µM
[30] = second compound 1 µM, first compound 10 µM
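Wherever viability, T/C is given: 100% = DMSO vehicle control wells.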

`C=CC(=O)N1CCN(c2nc(=O)n(-c3c(C)ccnc3C(C)C)c3nc(-c4c(O)cccc4F)c(F)cc23)C(C)C1` (stereo not given) + CCN1CCN(Cc2ccc(Nc3ncc(F)c(-c4cc(F)c5nc(C)n(C(C)C)c5c4)n3)nc2)CC1 gave an IC50 (second compound 0.01 µM) of 8410 nM, an IC50 (second compound 0.0316 µM) of 7730 nM and an IC50 (second compound 0.1 µM) of 8020 nM. It also gave an IC50 (second compound 0.316 µM) of 8180 nM, an IC50 (second compound 1 µM) of 9880 nM and a viability, T/C [1] of 96.3%. For the same molecule, the viability, T/C [2] was 84.9%, the viability, T/C [3] was 94.4% and the viability, T/C [4] was 94.8%. For the same molecule, the viability, T/C [5] was 81.9%, the viability, T/C [6] was 44.3% and the viability, T/C [7] was 82.4%. For the same molecule, the viability, T/C [8] was 84.8%, the viability, T/C [9] was 90.7% and the viability, T/C [10] was 92.3%. For the same molecule, the viability, T/C [11] was 83.5%, the viability, T/C [12] was 40% and the viability, T/C [13] was 72.2%. For the same molecule, the viability, T/C [14] was 70.2%, the viability, T/C [15] was 75.1% and the viability, T/C [16] was 94.2%. It also gave a viability, T/C [17] of 81.4%, a viability, T/C [18] of 43.3% and a viability, T/C [19] of 77%. The viability, T/C [20] was 55.1%, the viability, T/C [21] was 72.5% and the viability, T/C [22] was 94.1%. It also gave a viability, T/C [23] of 75.9%, a viability, T/C [24] of 44.9% and a viability, T/C [25] of 89.7%. For the same molecule, the viability, T/C [26] was 82.4%, the viability, T/C [27] was 94.6% and the viability, T/C [28] was 96.1%. For the same molecule, the viability, T/C [29] was 87.7% and the viability, T/C [30] was 49.5%.

`CC(C)(C)c1cnc(CSc2cnc(NC(=O)C3CCNCC3)s2)o1` + CCN1CCN(Cc2ccc(Nc3ncc(F)c(-c4cc(F)c5nc(C)n(C(C)C)c5c4)n3)nc2)CC1 showed an IC50 (second compound 0.01 µM) of 144 nM, an IC50 (second compound 0.0316 µM) of 134 nM and an IC50 (second compound 0.1 µM) of 93.6 nM. The IC50 (second compound 0.316 µM) was 42.9 nM, the IC50 (second compound 1 µM) was 48.1 nM and the viability, T/C (second compound 0.01 µM, first compound 0.00949 µM) was 106%. For the same molecule, the viability, T/C (second compound 0.01 µM, first compound 0.03 µM) was 97.6%, the viability, T/C (second compound 0.01 µM, first compound 0.0949 µM) was 76.5% and the viability, T/C (second compound 0.01 µM, first compound 0.3 µM) was 2.6%. For the same molecule, the viability, T/C (second compound 0.01 µM, first compound 0.949 µM) was 2.82%, the viability, T/C (second compound 0.01 µM, first compound 3 µM) was 2.81% and the viability, T/C (second compound 0.0316 µM, first compound 0.00949 µM) was 98.5%. For the same molecule, the viability, T/C (second compound 0.0316 µM, first compound 0.03 µM) was 84.2%, the viability, T/C (second compound 0.0316 µM, first compound 0.0949 µM) was 70.5% and the viability, T/C (second compound 0.0316 µM, first compound 0.3 µM) was 1.81%. The viability, T/C (second compound 0.0316 µM, first compound 0.949 µM) was 2.35%, the viability, T/C (second compound 0.0316 µM, first compound 3 µM) was 1.86% and the viability, T/C (second compound 0.1 µM, first compound 0.00949 µM) was 76.2%. It also gave a viability, T/C (second compound 0.1 µM, first compound 0.03 µM) of 63.3%, a viability, T/C (second compound 0.1 µM, first compound 0.0949 µM) of 50.1% and a viability, T/C (second compound 0.1 µM, first compound 0.3 µM) of 2.58%. For the same molecule, the viability, T/C (second compound 0.1 µM, first compound 0.949 µM) was 1.95%, the viability, T/C (second compound 0.1 µM, first compound 3 µM) was 2.75% and the viability, T/C (second compound 0.316 µM, first compound 0.00949 µM) was 71.2%. It also gave a viability, T/C (second compound 0.316 µM, first compound 0.03 µM) of 59.6%, a viability, T/C (second compound 0.316 µM, first compound 0.0949 µM) of 27.2% and a viability, T/C (second compound 0.316 µM, first compound 0.3 µM) of 1.79%. It also gave a viability, T/C (second compound 0.316 µM, first compound 0.949 µM) of 3.55%, a viability, T/C (second compound 0.316 µM, first compound 3 µM) of 3.21% and a viability, T/C (second compound 1 µM, first compound 0.00949 µM) of 91.7%. For the same molecule, the viability, T/C (second compound 1 µM, first compound 0.03 µM) was 78.2%, the viability, T/C (second compound 1 µM, first compound 0.0949 µM) was 9.34% and the viability, T/C (second compound 1 µM, first compound 0.3 µM) was 3.35%. It also gave a viability, T/C (second compound 1 µM, first compound 0.949 µM) of 3.92% and a viability, T/C (second compound 1 µM, first compound 3 µM) of 2.96%.

In the case of `Cn1nccc1Nc1nccc(-c2ccn(C(CO)c3ccc(Cl)c(F)c3)c(=O)c2)n1` (stereo not given) + CCN1CCN(Cc2ccc(Nc3ncc(F)c(-c4cc(F)c5nc(C)n(C(C)C)c5c4)n3)nc2)CC1, the IC50 (second compound 0.01 µM) is reported as 1580 nM, the IC50 (second compound 0.0316 µM) is reported as 1610 nM and the IC50 (second compound 0.1 µM) is reported as 441 nM. The IC50 (second compound 0.316 µM) was 254 nM, the IC50 (second compound 1 µM) was 1020 nM and the viability, T/C [1] was 72.3%. For the same molecule, the viability, T/C [2] was 62.5%, the viability, T/C [3] was 61.3% and the viability, T/C [4] was 55.5%. The viability, T/C [5] was 43.8%, the viability, T/C [6] was 24.9% and the viability, T/C [7] was 69.3%. It also gave a viability, T/C [8] of 60.3%, a viability, T/C [9] of 53% and a viability, T/C [10] of 55.2%. The viability, T/C [11] was 46.8%, the viability, T/C [12] was 17.1% and the viability, T/C [13] was 63.3%. For the same molecule, the viability, T/C [14] was 50.6%, the viability, T/C [15] was 51.5% and the viability, T/C [16] was 46.4%. For the same molecule, the viability, T/C [17] was 36.8%, the viability, T/C [18] was 18.6% and the viability, T/C [19] was 61.4%. The viability, T/C [20] was 50.5%, the viability, T/C [21] was 46.8% and the viability, T/C [22] was 47.7%. For the same molecule, the viability, T/C [23] was 31.6%, the viability, T/C [24] was 23.2% and the viability, T/C [25] was 71.1%. For the same molecule, the viability, T/C [26] was 60.2%, the viability, T/C [27] was 60.2% and the viability, T/C [28] was 50.7%. For the same molecule, the viability, T/C [29] was 38.8% and the viability, T/C [30] was 21.7%.
